In patent US12507703B2, “Methods, devices and compositions for preserving human milk” (The Trustees of Princeton University, priority 2023, dated 2025):
Values joined by “and” are separate entries in the source; they are usually repeats but may differ in a detail not shown here. Identical values can stand only once.

system: lipase; test: Lipase/lipolysis assay (EnzChek Lipase Substrate, quenched BODIPY-fatty acid conjugate) on stored human milk; details: not given; note: test concentration or dose not given here

Row | Compound | Lipase (RFU)
1 | CC(=O)O[C@]1(C)CC[C@@]23C[C@@H]1C(C)(C)[C@@H]2CC[C@H]3C [Cedryl acetate] | 1088.309 RFU
2 | COc1ccc(-c2cc(=O)c3c(O)cc(O[C@@H]4O[C@H](CO[C@@H]5O[C@@H](C)[C@H](O)[C@@H](O)[C@H]5O)[C@@H](O)[C@H](O)[C@H]4O)cc3o2)cc1 [Linarin] | 989.9197 RFU
3 | O=c1cc(-c2ccc(O)cc2)oc2c([C@@H]3OC[C@@H](O)[C@H](O)[C@H]3O)c(O)c([C@@H]3O[C@H](CO)[C@@H](O)[C@H](O)[C@H]3O)c(O)c12 [Vicenin 3] | 1057.755 RFU
4 | C[C@]12CCC(=O)C=C1CC[C@@H]1[C@@H]2[C@@H](O)C[C@]2(C)C(=O)CC[C@@H]12 [11-Beta-hydroxyandrostenedione] | 1190.299 RFU
5 | CC(=O)O[C@@H]1C(=O)C2=C(C(=O)C[C@H]3C(C)(C)C(=O)CC[C@]23C)[C@]2(C)C(=O)C[C@H]([C@H](C)CC(=O)CC(C)C(=O)O)[C@@]12C (stereo partly drawn) [Ganoderic acid F] | 791.7198 RFU
6 | COc1cc2c(cc1OC)-c1c(OC)c(OC)cc3c1[C@H](C2)N(C)CC3 [Glaucine] | 922.5844 RFU
7 | CC1(C)C[C@@H](O)[C@]2(C)CC[C@]3(C)C(=CC[C@@H]4[C@@]5(C)CC[C@H](O)[C@](C)(CO)[C@@H]5CC[C@]43C)[C@@H]2C1 [Soyasapogenol B] | 1146.412 RFU
8 | COc1cc2oc(=O)ccc2cc1CC=C(C)C [Suberosin] | 1003.25 RFU
9 | C[N+]1(C)CCC[C@H]1C(=O)[O-] [Stachydrine] | 1061.585 RFU
10 | C=C(C)[C@@H](O)COc1c2ccoc2cc2oc(=O)ccc12 [Pangelin] | 581.7367 RFU
11 | CC(C)=CCc1c(O)cc2oc3cc(O)c(O)c(CC=C(C)C)c3c(=O)c2c1O [Gamma-Mangostin] | 1083.745 RFU
12 | CC(C)=C1CC[C@@H](C)CC1=O [Pulegone] | 791.7693 RFU and 1146.187 RFU
13 | O=C(O)[C@H](O)[C@@H](O)[C@H](O)[C@H](O)CO [D-Gluconic Acid] | 876.4287 RFU
14 | NC(N)=O [Urea] | 934.3458 RFU and 864.3039 RFU
15 | O=C(O)[C@@H]1C[C@H](O)CN1 [cis-4-Hydroxy-L-proline] | 944.0714 RFU
16 | c1ccc2c(c1)CCO2 [Coumaran] | 980.2989 RFU
17 | C[C@@H]1O[C@@H](OC[C@H]2O[C@@H](Oc3c(-c4ccc(O)cc4)oc4cc(O)cc(O)c4c3=O)[C@H](O)[C@@H](O)[C@H]2O)[C@H](O)[C@H](O)[C@H]1O [Biorobin] | 791.185 RFU
18 | COc1c2ccoc2c(O)c2oc(=O)ccc12 [Compound 8-Hydroxybergapten] | 800.3718 RFU
19 | CC(=O)O[C@@H]1CC[C@@]2(C)[C@@H](CC[C@]3(C)[C@@H]2C(=O)C=C2[C@@H]4[C@@H](C)[C@H](C)CC[C@]4(C)CC[C@]23C)[C@@]1(C)C(=O)O [AKBA] | 1066.269 RFU
20 | CCOP(=O)(O)OCC [Diethyl phosphate] | 1033.984 RFU
21 | Maltopentaose | 907.876 RFU
22 | N[C@H]1CCOC1=O [L-Homoserine Lactone] | 1108.032 RFU

Row | Compound | Lipase (RFU)
23 | O=Cc1cc(O)c(O)c(O)c1 [Gallic aldehyde] | 942.9255 RFU
24 | O=C(/C=C/c1ccc(O)cc1)CC(=O)/C=C/c1ccc(O)cc1 [Bisdemethoxycucurmin] | 967.3982 RFU
25 | CC1(C)CC[C@]2(C(=O)O[C@@H]3O[C@H](CO)[C@@H](O)[C@H](O)[C@H]3O)CC[C@]3(C)C(=CC[C@@H]4[C@@]5(C)CC[C@H](O[C@@H]6O[C@H](C(=O)O)[C@@H](O[C@@H]7O[C@@H](CO)[C@H](O)[C@H]7O)[C@H](O)[C@H]6O)C(C)(C)[C@@H]5CC[C@]43C)[C@@H]2C1 [Araloside A] | 938.5227 RFU
26 | C[C@]12CC[C@@H](O)C[C@H]1CC[C@@H]1[C@@H]2[C@@H](O)C[C@@]2(C)[C@H]1CC[C@]2(O)C(=O)CO [Tetrahydrocortisol] | 1127.321 RFU
27 | Rebaudioside A | 1278.993 RFU
28 | COc1cc(/C=C/C(=O)NCCc2c[nH]c3ccc(O)cc23)ccc1O [N-Feruloylserotonin] | 1060.876 RFU
29 | Oc1ccc([C@H]2Oc3cc(O)cc(O)c3C[C@@H]2O)cc1 [(+)-Afzelechin] | 1063.84 RFU
30 | CC1(C)[C@@H](O)CC[C@]2(C)[C@H]3C(=O)C=C4[C@@H]5C[C@@](C)(C(=O)O)CC[C@]5(C)CC[C@@]4(C)[C@]3(C)CC[C@@H]12 [18β-Glycyrrhetinic acid] | 736.3555 RFU
31 | C[C@H](CC(=O)C[C@@H](C)[C@H]1C[C@H](O)[C@@]2(C)C3=C(C(=O)C[C@]12C)[C@@]1(C)CCC(=O)C(C)(C)[C@@H]1C[C@@H]3O)C(=O)O [Ganoderic acid A] | 685.8921 RFU
32 | Cn1cc(C(N)=O)ccc1=O [Nudifloramide] | 993.1021 RFU
33 | O=C(C=Cc1ccc(O)c(O)c1)OC1CC(O)(C(=O)O)CC(O)C1OC(=O)C=Cc1ccc(O)c(O)c1 (stereo not drawn) [4,5-Dicaffeoylquinic acid] | 1065.884 RFU
34 | CCC(C)N (stereo not drawn) [Sec-Butylamine] | 784.9928 RFU
35 | COc1ccc([C@@H]2CC(=O)c3c(O)cc(O[C@@H]4O[C@H](CO)[C@@H](O)[C@H](O)[C@H]4O[C@@H]4O[C@@H](C)[C@H](O)[C@@H](O)[C@H]4O)cc3O2)cc1O [Neohesperidin] | 774.0784 RFU
36 | CN1[C@@H]2CC[C@H]1CC(=O)C2 [Tropinone] | 856.4439 RFU
37 | D-Pantothenic acid (hemicalcium salt) | 932.4036 RFU
38 | COc1cc(CCCO)ccc1O [Dihydroconiferyl alcohol] | 1331.121 RFU
39 | NCC[C@H](N)C(=O)O [L-DABA] | 650.1144 RFU
40 | O=C(C=Cc1ccc(O)c(O)c1)OC1CC(C(=O)O)=CC(O)C1O (stereo not drawn) [5-O-Caffeoylshikimic acid] | 1072.132 RFU
41 | C=CC(C)(CCC=C(C)C)OC(C)=O (stereo not drawn) [Linalyl acetate] | 753.0162 RFU and 717.2876 RFU
42 | C[C@H](CCC(=O)O)[C@H]1CC[C@H]2[C@@H]3[C@H](O)C[C@@H]4C[C@H](O)CC[C@]4(C)[C@H]3C[C@H](O)[C@]12C [Cholic acid (sodium)] | 828.0633 RFU and 816.2579 RFU
43 | NC(=O)CC[C@@H]1NC(=O)[C@H](Cc2ccccc2)NC(=O)[C@H](Cc2ccc(O)cc2)NC(=O)[C@@H](N)CSSC[C@@H](C(=O)N2CCC[C@H]2C(=O)N[C@@H](CCCN=C(N)N)C(=O)NCC(N)=O)NC(=O)[C@H](CC(N)=O)NC1=O [Vasopressin] | 1150.397 RFU
44 | OC[C@H]1O[C@@H](O[C@H]2[C@H](O)[C@@H](O)[C@@H](O)O[C@@H]2CO)[C@H](O)[C@@H](O)[C@H]1O [α-Lactose] | 963.7922 RFU

same assay, conditions: (hydrochloride)

Row | Compound | Lipase (RFU)
45 | Cl.N[C@@H](CS)C(=O)O [L-Cysteine (hydrochloride)] | 936.4597 RFU and 1023.471 RFU
